From US8143301B2, “Hepatitis C virus inhibitors” (Bristol Myers Squibb Company, priority 2009, dated 2012) come the findings set out here.

Read-outs that look alike come from different tables or passages of the source.

As usually defined, the EC50 is the concentration at which the effect is half-maximal.

The assay relates to HCV 1b genotype. Put plainly: HCV Replicon assay, 1b genotype. Format: cell-based. To be noted: Hepatitis C virus, HCV 1b genotype replicon. As for the experimental part:
An HCV Replicon assay was utilized in the present disclosure, and was prepared, conducted and validated as described in commonly owned PCT/US2006/022197 and in O'Boyle et. al. Antimicrob Agents Chemother. 2005 April; 49(4):1346-53. Assay methods incorporating luciferase reporters have also been used as described (Apath.com).
HCV-neo replicon cells and replicon cells containing mutations in the NS5A region were used to test the currently described family of compounds. The compounds were determined to have more than 10-fold less inhibitory activity on cells containing mutations than wild-type cells. Thus, the compounds of the present disclosure can be effective in inhibiting the function of the HCV NS5A protein and are understood to be as effective in combinations as previously described in application PCT/US2006/022197 and commonly owned WO/O4014852. Further, the compounds of the present disclosure can be effective against the HCV 1b genotype. It should also be understood that the compounds of the present disclosure can inhibit multiple genotypes of HCV. […] In one embodiment, compounds of the present disclosure are inhibitory versus 1a, 1b, 2a, 2b, 3a, 4a, and 5a genotypes.
(In general: Replicon systems follow genome replication, usually without infectious particles.)

As for `O=C(OCc1ccccc1)N1CCCN1c1nc(-c2ccc(-c3ccc(-c4c[nH]c(N5CCCN5C(=O)OCc5ccccc5)n4)cc3)cc2)c[nH]1` [Example 10, dibenzyl 2,2′-(4,4′-biphenyldiylbis(1H-imidazole-4,2-diyl))di(1-pyrazolidinecarboxylate)], where the note is “read-out: 1b EC50 in Range”, the EC50 lay in the range of 1 to 99 nM.

Regarding `COC(=O)N[C@H](C(=O)N1[C@H](c2ncc(-c3ccc(C#Cc4ccc(-c5cnc([C@@H]6CCN(C)N6C(=O)[C@@H](NC(=O)OC)C(C)C)[nH]5)cc4)cc3)[nH]2)CCN1C)C(C)C` [Example 8, methyl ((1S)-1-(((5S)-5-(5-(4-((4-(2-((3S)-2-((2S)-2-((methoxycarbonyl)amino)-3-methylbutanoyl)-1-methyl-3-pyrazolidinyl)-1H-imidazol-5-yl)phenyl)ethynyl)phenyl)-1H-imidazol-2-yl)-2-methyl-1-pyrazolidinyl)carbonyl)-2-methylpropyl)carbamate], the concentration giving a half-maximal response (EC50) by setting is: (read-out: 1b EC50) 0.2 nM; (read-out: 1b EC50 in Range) 0.101 to 0.999 nM. Turning to `COC(=O)N[C@H](C(=O)N1[C@H](c2ncc(-c3ccc(-c4ccc(-c5cnc([C@@H]6CCN(C)N6C(=O)[C@@H](NC(=O)OC)C(C)C)[nH]5)cc4)cc3)[nH]2)CCN1C)C(C)C` [Example 1, methyl ((1S)-1-(((5S)-5-(5-(4′-(2-((3S)-2-((2S)-2-((methoxycarbonyl)amino)-3-methylbutanoyl)-1-methyl-3-pyrazolidinyl)-1H-imidazol-5-yl)-4-biphenylyl)-1H-imidazol-2-yl)-2-methyl-1-pyrazolidinyl)carbonyl)-2-methylpropyl)carbamate], the half-maximal effective concentration (EC50) (read-out: 1b EC50) was determined as 0.003 nM.

Turning to `COC(=O)N[C@@H](C(=O)N1CCCN1c1nc(-c2ccc(-c3ccc(-c4c[nH]c(N5CCCN5C(=O)[C@H](NC(=O)OC)c5ccccc5)n4)cc3)cc2)c[nH]1)c1ccccc1` [Example 12, dimethyl (4,4′-biphenyldiylbis(1H-imidazole-4,2-diyl-2,1-pyrazolidinediyl((1R)-2-oxo-1-phenyl-2,1-ethanediyl)))biscarbamate], the EC50 (read-out: 1b EC50 in Range) was in the range of 0.101 to 0.999 nM.

Consider `COC(=O)N[C@H](C(=O)N1CCCN1c1nc(-c2ccc(-c3ccc(-c4c[nH]c(N5CCCN5C(=O)[C@@H](NC(=O)OC)C(C)C)n4)cc3)cc2)c[nH]1)C(C)C` [Example 11, methyl ((1S)-1-((2-(4-(4′-(2-(2-((2S)-2-((methoxycarbonyl)amino)-3-methylbutanoyl)-1-pyrazolidinyl)-1H-imidazol-4-yl)-4-biphenylyl)-1H-imidazol-2-yl)-1-pyrazolidinyl)carbonyl)-2-methylpropyl)carbamate], for which the EC50 runs as follows: (read-out: 1b EC50) below 13.7 nM; (read-out: 1b EC50 in Range) 1 to 99 nM.
